Results taken from publication PMC11794677, “Self‐Assembly of a Conjugate of Lipoic Acid With a Collagen‐Stimulating Pentapeptide Showing Cytocompatibility and Wound Healing Properties, and Chemical and Photolytic Disassembly” (Journal of Peptide Science, 2025).

Assays:
[1] = Cryo-TEM of aggregation in solution; type: physicochemical; conditions: 3 wt% aqueous solution, above the CAC
From the text: Cryo‐TEM was used to probe potential aggregation in solution above the CAC (3 wt% aqueous solution). […] The presence of such structures was also confirmed by SAXS and SANS data (Figure 3), which reveal form factor features that can be fitted using a core‐shell cylinder form factor, consistent with extended fibril structures. The cylinder radius is 25 Å, which is approximately equal to the estimated length of the molecule considering the lipid chain plus a pentapeptide in a β‐sheet conformation. […] For the SAXS data, it was necessary to include a contribution in the fits from unaggregated peptide, which gives rise to scattering at high q, described using a generalized Gaussian coil form factor (generalized refers to allowing the Flory exponent for the coil to vary from the value ν = 0.5 for an unperturbed coil). SANS data for 3 wt% solutions of lipoyl‐KTTKS in D2O can be fitted to a core‐shell cylinder form factor, consistent with SAXS, with fit parameters listed in Table S1. It was not necessary to allow for unaggregated monomer in fitting the SANS data, which may be because of the higher background and/or altered scattering contrast compared with SAXS. The cylinder radius and shell thickness obtained from the fits to the SANS data are in excellent agreement with the parameters obtained from the SAXS fit.
FIGURE 2 Cryo‐TEM image from a 3‐wt% aqueous solution of lipoyl‐KTTKS.

HDFa cells = assay: MTT cytocompatibility assay; type: cell-based, Human; conditions: 72 h incubation, concentrations up to 0.1 wt%, absorbance 560 nm, ANOVA, n = 3
Experimental: For the cytocompatibility assays, HDFa cells were cultivated in DMEM/F12 supplemented with 5% FBS, Glutamax, penicillin/streptomycin 100 IU/mL and incubated at 37°C within an atmosphere of 5% CO2. The RAW cells were cultured in DMEM with 10% FBS, Glutamax, penicillin/streptomycin 100 IU/mL and maintained under the same conditions as the HDFa cells.
To measure the cytocompatibility of lipoyl‐KTTKS, 24 h before the assay HDFa cells were cultivated in 96‐well plates with 1 × 10^4 cells/well with supplemented DMEM/F12. Then, the wells were washed three times with PBS, and cells were incubated for 72 h in media containing different concentrations of lipoyl‐KTTKS. After incubation, the cells were washed again three times with PBS and 100 μL of DMEM/F12 without phenol red + 5 μg/mL of MTT was added to each well. The plate containing cells in media containing MTT was incubated for 4 h inside an incubator at 37°C, protected from the light. After incubation, 100 μL of DMSO was added to each well to solubilize the resulting formazan crystals. The absorbance was measured at 560 nm using an Infinite F50 microplate reader (TECAN, Switzerland).

[2] = CAC assay with fluorescent probe thioflavin T (ThT); type: physicochemical; conditions: ThT fluorescence peak intensity (λem = 448 nm) vs concentration
Experimental: Before considering biocompatibility and bioactivity of lipoyl‐KTTKS, we examined whether this lipopeptide has a critical aggregation concentration (CAC) above which it forms self‐assembled aggregate structures. Based on our previous work on KTTKS‐lipopeptides, β‐sheet formation of lipoyl‐KTTKS is likely to be favoured. Therefore a CAC assay using the fluorescent probe thioflavin T (ThT) which is sensitive to β‐sheet formation was performed. The ThT fluorescence peak intensity was monitored as a function of concentration, and the results are shown in Figure 1 and indicate a CAC value (0.5 ± 0.1) wt% from the intersection of the straight lines at low and high concentrations, or (0.67 ± 0.06) wt% as the midpoint of a fitted Boltzmann‐type sigmoidal function: I=A2+A1−A2/1+expc−c1/2/σ
FIGURE 1 CAC assay plotting fluorescence intensity of ThT (λ em = 448 nm) as a function of concentration. […] The black lines provide a linear intercept estimate of CAC.
Here, I is the fluorescence intensity (at λ em = 448 nm), A 1 and A 2 are constants, c is the lipopeptide concentration, c 1/2 is the mid‐point concentration, and σ is the width parameter.

Aggregate structure seen by cryo-TEM [1]: short curly fibrils
CAC (critical aggregation concentration) from intersection of straight lines ([2]; intersection of straight lines at low and high concentrations): 0.5 ± 0.1 wt%
CAC as midpoint of fitted Boltzmann-type sigmoidal function ([2]; midpoint c1/2 of sigmoidal fit): 0.67 ± 0.06 wt%
Substance: lipoyl‐KTTKS [peptide amphiphile comprising a conjugate of lipoic acid to pentapeptide KTTKS]
Cytotoxicity (cell viability, MTT) (HDFa cells): does not present any statistically significant cytotoxicity
